Results on one compound are retold here after ChEMBL document CHEMBL5352438, “Discovery of Pyrrolo[2,3-d]pyrimidine derivatives as potent and selective colony stimulating factor 1 receptor kinase inhibitors” (Eur J Med Chem, 2022).

A word on the Cmax: it is the peak of the concentration-time curve. One may read the AUC(0-inf) as the area under the concentration-time curve extrapolated to infinity. A low value points to low exposure. What is called Vd is the apparent volume that relates the amount in the body to the concentration in plasma or blood. As a reminder, the clearance is the rate of elimination divided by the concentration. The low end stands for a low capacity for elimination, the high end for a high capacity for elimination. In general, CL/F refers to the apparent clearance, not corrected for the fraction that reaches the circulation.

Data set [1] in a line: in vivo. The following applies: Sprague-Dawley, rat, iv, 1 mg/kg.
Data set [2] can be described thus: in vivo. To be noted: Sprague-Dawley, rat, po, 10 mg/kg.
A short description of data set [3]: in vivo. To be noted: Sprague-Dawley, rat, iv, 1 mg/kg. The source holds these as a separate data set.
Data set [4] can be described thus: in vivo. To be noted: Sprague-Dawley, rat, po, 10 mg/kg. This is another data set of the same source.
The nature of data set [5]: in vivo. The following applies: Sprague-Dawley, rat, iv, 1 mg/kg. The source holds these as a separate data set.
Data set [6] is described as follows: in vivo. To be noted: Sprague-Dawley, rat, iv, 1 mg/kg. The source holds these as a separate data set.
Data set [7] in a line: in vivo. The following applies: Sprague-Dawley, rat, po, 10 mg/kg. The source holds these as a separate data set.
The nature of data set [8]: in vivo. The following applies: Sprague-Dawley, rat, po, 10 mg/kg. The source holds these as a separate data set.

Regarding `Cn1ccc2c(Oc3ccc(NC(=O)Cc4ccc(C(F)(F)F)c(F)c4)cc3)ncnc21`, the Cmax at 12 h was 1430 ng/mL in the data set “in vivo [1]” and 1190 ng/mL in “in vivo [2]”. In addition, the area under the curve AUC(0-inf) at 12 h stood at 1310 ng·h/mL in “in vivo [3]” and 14600 ng·h/mL in the data set “in vivo [4]”. In “in vivo [5]”, this compound came in with a Vd at 12 h of 1.55 L/kg. For the same compound, the clearance at 12 h in the data set “in vivo [6]” was 13.3 mL/min/kg. The compound also gave a CL/F at 12 h in the data set “in vivo [7]” of 11.6 mL/min/kg. Besides, the bioavailability at 12 h in the data set “in vivo [8]” was 111%.
